Series [1] concerns the target serum FAP (Macaca fascicularis, UniProt A0A2K5VGH4). Put plainly: IC50 on serum FAP, monkeys. In kind it is biochemical. Particulars: read-out: Serum FAP IC50 (nM): Monkey.
The next series in a line: Thermodynamic solubility. In kind it is physicochemical. The note with it: thermodynamic from solid.
The target in series [2] is T1, serum FAP (Mus musculus, UniProt P97321).
T1 construct: from tissue; host or cells: mouse serum/plasma (ob/ob and C57BL/6J mice)
Put plainly: IC50 on serum FAP, mice. In kind it is biochemical.

Series [3] addresses T2, serum FAP (Homo sapiens, UniProt Q12884).
T2 construct: also found in human serum as a soluble form lacking the transmembrane domain; from tissue; host or cells: human serum
Put plainly: IC50 on serum FAP, humans. In kind it is biochemical.

Series [4] in a line: Microsomal stability, human. In kind it is in vitro ADME. The note with it: liver microsomes, pH 7.4, 0.5 mg/mL, NADPH, read-out: Microsomal stability (% remaining at 60 min). As for the experimental part: (§1) Aliquots were then transferred in duplicate to: (i) a final concentration plate that was immediately quenched with 23.6 ng/mL internal standard (IS, chlorpropamide) in acetonitrile (ACN) or (ii) tubes, which were centrifuged for 5 min at 4℃ (14,000 rpm). The samples were subjected to LC–MS/MS analysis on an AB Sciex 4000 Q Trap hybrid triple quadrupole linear ion-trap MS (AB Sciex, Framingham, MA) coupled to an Agilent 1200 HPLC (Agilent Tech. Santa Clara, CA) with a reverse-phase Kinetex XB-C18 column (2.1 × 100 mm, 2.6 µm; Phenomenex). Mobile phases were comprised of 0.1% formic acid (FA) in water (A) and 0.1 FA in ACN (B). Data analysis was performed using […] (Ver. 1.6.1).
Background: Liver microsomes are vesicles of endoplasmic reticulum, rich in cytochrome P450 enzymes.

The target of a further series is T3, hERG (Homo sapiens, UniProt Q12809).
T3 construct: purchased Invitrogen; host or cells: membrane preparation of the kit
In words: hERG binding assay based on fluorescence polarization. As for the experimental part:
Predictor hERG Assay test kits were obtained from Invitrogen (Carlsbad, CA). The binding assay was carried out according to the manufacturer’s instructions. […] Working Tracer solution (5 μL) was then added and the plate was allowed to incubate at room temperature for at least 1 h, and then fluorescence polarization was measured using the Synergy 4 Hybrid Microplate Reader from BioTek Instruments (Winooski, VT) with 530/25 excitation and 590/35 emission filters along with a 570 nm cut off dichroic mirror. Polarization values were calculated automatically using Gen Data Analysis Software (BioTek Instruments). The above protocol is described in detail in the Invitrogen’s application note.

The nature of series [5]: Plasma protein binding, human. In kind it is in vitro ADME. Particulars: human (H), read-out: Plasma protein binding (% bound) (converted). How it is done:
Protein binding was conducted as described. Compound solutions prepared in DMSO were diluted in phosphate buffer (final concentration: 1 µg/mL), and added into human plasma (total volume: 1 mL). Aliquots were then transferred in duplicate to: (i) a final concentration plate that was immediately quenched with 23.6 ng/mL internal standard (IS, chlorpropamide) in ACN, (ii) a degradation control, which was placed in a water bath at 37℃ for 4 h, and (iii) ultracentrifuge tubes, which were centrifuged for 5 min at 4℃ (14,000 rpm). All reactions were stopped by the addition of ACN containing 23.6 ng/mL chlorpropamide. The samples were subjected to LC–MS/MS analysis.

The next series is described as follows: Plasma stability, human. In kind it is in vitro ADME. The note with it: pH 7.4, read-out: Plasma stability (% remaining at 60 min). How it is done: as §1
The target of another series is T4, DPP9 (Homo sapiens, UniProt Q86TI2).
T4 construct: purchased R&D Systems 5419-SE
Put plainly: DPP9 activity, fluorometric assay with AMC substrate. The note with it: fluorometric assay using AMC substrates. In kind it is biochemical. How it is done: (§2) Recombinant human PREP (hPREP) (catalog no. 4308-SE), hDPP2/7 (catalog no. 3438-SE), hDPP9 (catalog no. 5419-SE), hFAP (catalog no. 3715-SE), and hDPP4 (catalog no. 9168-SE) proteins were from R&D Systems (Minneapolis, MN). Human FGF21 (catalog no. CRF159C) was from Cell Science (Newburyport, MA).
(§3) FAP enzyme activities were assayed in 20 mM Tris/HCl, 0.1 M NaCl, 1 mM EDTA (pH 8.0) in the presence of 40 μM Suc-Gly-Pro-Leu-Gly-Pro-AMC (#I-1350.0100, BACHEM, Bubendorf, Switzerland) and hFAP in a total volume of 100 µL. […] The inhibitor concentrations ranged from 100 μM to 0.03 nM, and its IC50 values were computed with commercially available curve-fitting programs such as the SigmaPlot. Other protease activities were determined in a similar manner.

The target of another series is T5, DPP4 (Homo sapiens, UniProt P27487).
T5 construct: purchased R&D Systems 9168-SE
In words: DPP4 activity, fluorometric assay with AMC substrate. In kind it is biochemical. Particulars: fluorometric assay using AMC substrates. As for the experimental part:
as §2, §3

A further series in a line: in vivo. Particulars: cynomolgus monkey, plasma, inhaled or intranasal, 50 mg/kg.
Series [6] can be described thus: Microsomal stability, dog. In kind it is in vitro ADME. Particulars: liver microsomes, pH 7.4, dog (D), 0.5 mg/mL, NADPH, read-out: Microsomal stability (% remaining at 60 min). How it is done:
as §1

For the next series, the system named is CDAHFD NASH mouse model. Put plainly: In vivo study using CDAHFD mice (NASH model). More on the design: species or system C57BL/6J mice. How it is done: C57BL/6J mice were fed normal chow diet (n = 5) or choline-deficient, L-amino acid-defined, high-fat diet (CDAHFD) for 4 weeks to induce NASH (n = 8–10/group). […] (a) Relative FAP activity was assessed by FRET-quench and serum FGF21 level at week 14. […] (c) Steatosis scores ranged from 0 to 3 (normal = 0, minimal = 1, moderate = 2, marked = 3) were determined. Hepatic steatosis and fibrosis (Picrosirius red stain) were analyzed in a blinded manner or by digital image analyzer. (d–e) Histological evaluations of liver tissue were performed in each group. Paraffin-embedded liver sections were stained with H&E (d) and Sirius red (e). Representative photographs of each group were presented. Images were obtained at 100x (Scale bar = 50 µm).
Male C57BL/6J mice (5 weeks of age) were fed with a CDAHFD consisting of 60% kcal fat and 0.1% methionine. […] For the CDAHFD model, compound treatments were started at the beginning of week 4 on the diet and continued until week 14. […] Liver tissue was then collected. All other measurements were done similarly as described above. Staining was performed using H&E and Picrosirius red as described previously. Areas of positive Sirius red were quantified by computer-based morphometric analysis.

The mark [7] stands for this setting: 10 and 30 mg/kg, week 14, vs vehicle.

Structures are written as SMILES. Converted amounts (≈) assume the structure as drawn. Like-named read-outs stand apart in the source and are kept apart here.

The values below come from PMC7718273 (Scientific Reports, 2020).

What is called IC50 is the concentration at which inhibition is half-maximal. For orientation: solubility (thermodynamic) means solubility found after equilibrating the solid with the medium. What is called amount remaining is what is left of the initial amount, in per cent. The Tmax is the time at which the peak concentration occurs.

T1 sequence (P97321 24-761 limits assumed): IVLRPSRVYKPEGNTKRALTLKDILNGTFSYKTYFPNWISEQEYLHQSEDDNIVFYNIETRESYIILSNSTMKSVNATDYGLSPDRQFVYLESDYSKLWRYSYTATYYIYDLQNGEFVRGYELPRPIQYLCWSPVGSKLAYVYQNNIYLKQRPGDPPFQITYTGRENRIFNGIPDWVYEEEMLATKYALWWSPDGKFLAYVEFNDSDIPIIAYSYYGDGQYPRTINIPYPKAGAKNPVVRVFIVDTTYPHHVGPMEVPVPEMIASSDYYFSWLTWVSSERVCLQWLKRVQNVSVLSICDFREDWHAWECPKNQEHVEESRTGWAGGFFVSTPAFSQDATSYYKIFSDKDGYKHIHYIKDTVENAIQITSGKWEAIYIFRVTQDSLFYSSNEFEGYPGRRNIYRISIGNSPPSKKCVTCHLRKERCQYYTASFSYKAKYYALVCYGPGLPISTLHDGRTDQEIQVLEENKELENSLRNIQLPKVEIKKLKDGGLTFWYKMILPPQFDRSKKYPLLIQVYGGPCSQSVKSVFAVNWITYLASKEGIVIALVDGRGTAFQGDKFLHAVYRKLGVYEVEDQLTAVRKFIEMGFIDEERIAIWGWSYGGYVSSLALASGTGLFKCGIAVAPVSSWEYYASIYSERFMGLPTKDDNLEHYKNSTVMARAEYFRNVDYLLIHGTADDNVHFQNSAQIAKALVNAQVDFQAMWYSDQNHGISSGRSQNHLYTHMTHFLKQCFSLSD
T5 sequence (P27487 whole entry): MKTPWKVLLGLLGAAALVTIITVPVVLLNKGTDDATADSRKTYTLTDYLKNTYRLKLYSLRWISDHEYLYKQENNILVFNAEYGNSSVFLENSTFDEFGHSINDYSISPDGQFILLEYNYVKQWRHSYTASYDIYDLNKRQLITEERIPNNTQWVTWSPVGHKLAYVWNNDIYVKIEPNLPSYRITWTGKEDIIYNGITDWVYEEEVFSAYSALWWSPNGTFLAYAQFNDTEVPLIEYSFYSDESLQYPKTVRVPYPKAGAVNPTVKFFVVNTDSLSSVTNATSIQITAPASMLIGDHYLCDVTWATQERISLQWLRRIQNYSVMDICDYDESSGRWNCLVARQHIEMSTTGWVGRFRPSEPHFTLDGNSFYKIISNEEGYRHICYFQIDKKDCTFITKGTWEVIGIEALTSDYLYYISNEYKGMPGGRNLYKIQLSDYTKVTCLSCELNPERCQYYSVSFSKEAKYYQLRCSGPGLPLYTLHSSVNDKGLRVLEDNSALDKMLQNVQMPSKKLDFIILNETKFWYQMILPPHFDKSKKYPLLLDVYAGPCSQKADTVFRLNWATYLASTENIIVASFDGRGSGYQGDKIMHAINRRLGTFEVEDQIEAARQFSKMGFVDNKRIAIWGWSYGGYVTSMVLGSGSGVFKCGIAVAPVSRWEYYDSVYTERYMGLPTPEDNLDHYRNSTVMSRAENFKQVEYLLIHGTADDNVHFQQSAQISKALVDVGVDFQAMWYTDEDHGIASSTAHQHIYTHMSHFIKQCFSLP
T3 sequence (Q12809 whole entry): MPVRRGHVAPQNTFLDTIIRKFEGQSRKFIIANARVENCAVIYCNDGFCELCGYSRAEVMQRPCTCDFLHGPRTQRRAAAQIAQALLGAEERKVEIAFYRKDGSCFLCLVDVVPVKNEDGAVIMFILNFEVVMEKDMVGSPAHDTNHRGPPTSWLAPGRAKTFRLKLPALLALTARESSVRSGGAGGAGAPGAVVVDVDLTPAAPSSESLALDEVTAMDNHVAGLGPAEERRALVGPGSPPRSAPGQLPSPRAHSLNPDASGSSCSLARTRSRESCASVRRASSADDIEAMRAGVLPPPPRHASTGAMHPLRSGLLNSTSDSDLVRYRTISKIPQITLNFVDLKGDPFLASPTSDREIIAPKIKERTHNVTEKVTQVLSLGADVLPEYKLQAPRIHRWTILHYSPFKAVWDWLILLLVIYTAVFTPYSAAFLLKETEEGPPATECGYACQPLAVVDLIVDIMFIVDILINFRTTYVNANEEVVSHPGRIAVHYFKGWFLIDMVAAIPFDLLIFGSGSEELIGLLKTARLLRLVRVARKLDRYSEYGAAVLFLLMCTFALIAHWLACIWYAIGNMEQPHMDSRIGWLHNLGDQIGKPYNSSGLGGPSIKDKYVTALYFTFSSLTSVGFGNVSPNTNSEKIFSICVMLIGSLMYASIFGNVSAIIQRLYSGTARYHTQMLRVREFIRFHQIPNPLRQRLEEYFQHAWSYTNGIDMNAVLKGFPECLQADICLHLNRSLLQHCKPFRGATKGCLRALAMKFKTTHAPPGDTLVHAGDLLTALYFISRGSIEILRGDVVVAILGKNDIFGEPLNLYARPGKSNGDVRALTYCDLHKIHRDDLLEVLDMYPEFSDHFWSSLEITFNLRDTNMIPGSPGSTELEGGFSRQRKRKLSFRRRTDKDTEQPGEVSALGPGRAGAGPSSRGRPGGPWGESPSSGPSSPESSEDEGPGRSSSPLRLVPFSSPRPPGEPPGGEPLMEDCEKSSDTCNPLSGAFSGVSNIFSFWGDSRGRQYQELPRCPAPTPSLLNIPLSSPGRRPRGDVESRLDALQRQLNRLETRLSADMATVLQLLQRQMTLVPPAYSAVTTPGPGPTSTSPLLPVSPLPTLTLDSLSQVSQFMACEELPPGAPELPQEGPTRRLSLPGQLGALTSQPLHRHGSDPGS
serum FAP (Macaca fascicularis, UniProt A0A2K5VGH4), sequence (A0A2K5VGH4 entry or part of it): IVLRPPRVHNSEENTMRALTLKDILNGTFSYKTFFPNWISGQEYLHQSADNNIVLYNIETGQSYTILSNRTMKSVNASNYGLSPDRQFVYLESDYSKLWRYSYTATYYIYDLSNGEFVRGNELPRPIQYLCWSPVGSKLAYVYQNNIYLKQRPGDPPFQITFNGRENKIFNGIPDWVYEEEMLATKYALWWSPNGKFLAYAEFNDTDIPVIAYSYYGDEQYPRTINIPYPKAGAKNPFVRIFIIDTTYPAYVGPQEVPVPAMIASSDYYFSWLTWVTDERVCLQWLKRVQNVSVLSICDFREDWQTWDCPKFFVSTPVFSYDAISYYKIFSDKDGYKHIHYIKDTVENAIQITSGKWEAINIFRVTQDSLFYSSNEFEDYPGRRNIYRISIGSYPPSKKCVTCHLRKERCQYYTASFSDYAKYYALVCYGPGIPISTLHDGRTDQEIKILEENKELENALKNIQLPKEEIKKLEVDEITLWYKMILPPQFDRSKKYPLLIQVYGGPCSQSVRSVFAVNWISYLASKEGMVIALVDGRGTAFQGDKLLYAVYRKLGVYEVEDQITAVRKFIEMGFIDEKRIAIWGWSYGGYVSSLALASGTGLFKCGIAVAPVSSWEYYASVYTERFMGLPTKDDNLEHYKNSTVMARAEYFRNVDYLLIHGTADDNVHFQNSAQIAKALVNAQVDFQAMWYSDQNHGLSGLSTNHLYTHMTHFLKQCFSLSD
T4 sequence (Q86TI2 whole entry): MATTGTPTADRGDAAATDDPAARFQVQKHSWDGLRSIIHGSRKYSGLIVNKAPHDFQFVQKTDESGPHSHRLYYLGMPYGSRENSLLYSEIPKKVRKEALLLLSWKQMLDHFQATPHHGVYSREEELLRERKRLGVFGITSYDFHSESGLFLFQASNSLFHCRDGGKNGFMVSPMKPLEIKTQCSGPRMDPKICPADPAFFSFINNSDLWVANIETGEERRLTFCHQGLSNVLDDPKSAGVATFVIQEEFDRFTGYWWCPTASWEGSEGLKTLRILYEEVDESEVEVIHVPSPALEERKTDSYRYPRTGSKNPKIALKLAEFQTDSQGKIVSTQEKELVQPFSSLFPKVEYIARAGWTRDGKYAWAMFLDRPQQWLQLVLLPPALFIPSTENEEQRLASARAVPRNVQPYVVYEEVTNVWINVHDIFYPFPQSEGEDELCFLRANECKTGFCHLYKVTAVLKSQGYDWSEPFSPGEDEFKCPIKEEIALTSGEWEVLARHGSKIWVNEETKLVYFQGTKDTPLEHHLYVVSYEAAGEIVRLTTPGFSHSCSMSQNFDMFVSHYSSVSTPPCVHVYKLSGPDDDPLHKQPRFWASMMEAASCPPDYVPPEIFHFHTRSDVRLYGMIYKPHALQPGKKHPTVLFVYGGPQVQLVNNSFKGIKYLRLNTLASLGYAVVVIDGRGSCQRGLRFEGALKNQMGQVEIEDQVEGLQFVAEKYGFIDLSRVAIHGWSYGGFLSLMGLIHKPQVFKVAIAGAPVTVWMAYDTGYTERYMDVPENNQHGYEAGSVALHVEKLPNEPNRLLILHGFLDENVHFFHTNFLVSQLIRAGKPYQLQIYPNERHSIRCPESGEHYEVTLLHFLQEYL
T2 sequence (Q12884 24-760 limits assumed): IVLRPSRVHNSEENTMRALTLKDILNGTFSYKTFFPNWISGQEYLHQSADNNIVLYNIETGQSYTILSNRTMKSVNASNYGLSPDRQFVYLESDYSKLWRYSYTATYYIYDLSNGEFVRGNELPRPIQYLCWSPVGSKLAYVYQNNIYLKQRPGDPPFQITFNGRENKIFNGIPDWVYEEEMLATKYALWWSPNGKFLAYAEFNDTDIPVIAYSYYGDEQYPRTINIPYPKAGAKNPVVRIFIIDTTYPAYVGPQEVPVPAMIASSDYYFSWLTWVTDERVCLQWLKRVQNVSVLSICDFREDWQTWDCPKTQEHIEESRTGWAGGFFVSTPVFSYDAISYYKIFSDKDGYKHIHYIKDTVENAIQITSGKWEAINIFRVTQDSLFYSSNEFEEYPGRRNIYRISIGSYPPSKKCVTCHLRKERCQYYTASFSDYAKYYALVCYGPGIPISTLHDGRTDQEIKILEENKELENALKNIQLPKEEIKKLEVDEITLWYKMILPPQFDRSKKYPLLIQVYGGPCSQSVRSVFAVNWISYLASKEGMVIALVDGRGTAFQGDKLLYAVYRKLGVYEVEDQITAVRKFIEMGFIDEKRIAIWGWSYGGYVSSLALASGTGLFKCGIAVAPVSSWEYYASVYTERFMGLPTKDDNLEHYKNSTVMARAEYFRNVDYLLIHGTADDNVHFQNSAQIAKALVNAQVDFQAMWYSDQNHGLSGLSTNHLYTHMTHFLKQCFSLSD

With `N#Cc1ccc(Cc2nc(C(=O)NCC(=O)N3CC(F)(F)C[C@H]3C#N)cs2)cc1` [BR103354, (S)-N-(2-(2-cyano-4,4-difluoropyrrolidin-1-yl)-2-oxoethyl)-2-(4-cyanobenzyl)thiazole-4-carboxamide], the IC50 on serum FAP [1] was 27 nM; at serum FAP [2] (mice, monkeys and humans together, read-out: serum FAP IC50 values, all three species) it was 27 to 31 nM; at serum FAP [2] (read-out: Serum FAP IC50 (nM): Mouse) it was 31 nM; against serum FAP [3] it was 29 nM; at hERG, more than 788000 nM; against DPP9 it was 5040 nM. For the same compound, the IC50 against DPP4 was more than 100000 nM. Further, the solubility (thermodynamic) in “Thermodynamic solubility” (aqueous buffer, pH 3.0) is 165 µg/mL (≈ 397 µM); in the series “Thermodynamic solubility” (aqueous buffer, pH 7.0), 141 µg/mL (≈ 339 µM); in “Thermodynamic solubility” (simulated gastric fluid, pH 1.0), 197 µg/mL (≈ 474 µM). Besides, the fraction remaining at 1 h, 1 µM in series [4] was 95%; in the series “Plasma stability, human” it was more than 100%; in series [6], more than 100%. In addition, the fraction unbound at 1 µg/mL in series [5] is 0.33. In addition, in the series “in vivo”, the time to peak (Tmax) is 3 h. In addition, the “liver fibrosis (Picrosirius red staining)” value with CDAHFD NASH mouse model (10 and 30 mg/kg) is listed as “significant reduction”. Besides, the “increase of serum FGF21 levels” value in the series on CDAHFD NASH mouse model (10 and 30 mg/kg p.o. for 10 weeks) was 1.5–1.9 folds. In addition, the Steatosis scores entry in the series on CDAHFD NASH mouse model (10 and 30 mg/kg, score 0 to 3) was “significant reduction”. Also, in the series on CDAHFD NASH mouse model (setting [7]), the TG result is recorded as “reduced”. Also, the “blood ALT levels” value in the series on CDAHFD NASH mouse model (setting [7]) is “reduced”. For the same compound, the “blood AST levels” value in the series on CDAHFD NASH mouse model (setting [7]) is listed as “reduced”. In the series on CDAHFD NASH mouse model (setting [7]), the glucose levels entry is on record as “reduced”. In addition, the total cholesterol entry in the series on CDAHFD NASH mouse model (setting [7]) was “reduced”.
